For assay [1], the system named is gastric lesion formation (rat stomach). Nature of the assay: Shay rat: inhibition of gastric lesion formation induced by pyloric ligature and oral acetylsalicylic acid (protective effect on the stomach). The note with it: perorally, rats, 1 h before pyloric ligature, 4 h, 100 mg/kg acetylsalicylic acid, dose reducing lesion index by 50% vs control. It counts as in vivo. The protocol: (§1) In these experiments, the compounds according to the invention were compared with prior art compounds (A-D) of European Patent Applications Nos. 0 005 129 and 0 074 341. The compounds investigated are numbered as follows: The influence of the compounds of the prior art and the compounds according to the invention on gastric lesion formation induced by pyloric ligature (4 h; so-called Shay rat) and oral administration of 100 mg/kg of acetylsalicyclic acid, and the gastric secretion (HCl) in the course of 4 h in rats is shown in the following table. | *ED25 and ED50 = dose which reduces the lesion index or the HCL | secretion(4h) in the rat stomach by 25 and, respectively, 50% in the | treated group in comparison with the control group. The antiulcerogenic action was tested by the so-called Shay rat method: Ulcers are caused in rats which have been fasted for 24 hours (female, 180-200 g, 4 animals per cage on a high grid) by pyloric ligature (under diethyl ether anesthesia) and oral administration of 100 mg/10 ml/kg of acetylsalicylic acid. The substances to be tested are administered orally (10 ml/kg) one hour before the pyloric ligature. The wound is closed by means of Michel clamps. 4 hours thereafter, the animals are sacrificed under ether anesthesia by Atlas dislocation and resection of the stomach. The stomach is opened longitudinally and attached to a cork plate, after the amount of gastric juice secreted (volume) and later its HCl content (titration with sodium hydroxide solution) have first been determined; the number and size (=diameter) of the ulcers present are determined under a stereomicroscope at 10-fold magnification. The product of the degree of severity (according to the following points scale) and number of ulcers serves as the individual lesion index. The reduction in the average lesion index of each treated group compared with the control group (=100%) serves as a measure of the antiulcerogenic effect.

Assay [2] concerns gastric secretion (HCl) (rat stomach). Nature of the assay: Shay rat: inhibition of gastric secretion (HCl) in the course of 4 h. In kind it is in vivo. The note with it: for ED25 / ED50: Rattus norvegicus, po, perorally, rats; for ED25: dose reducing HCl secretion (4 h) by 25% vs control; for ED50: dose reducing HCl secretion (4 h) by 50% vs control; for Gastric secretion (rats): % inhibition of HCl secretion: after administration of the antiulcerous ED50, perorally, 4 h. The protocol:
as §1, with “group. | **after administration of the antiulcerous ED50.” for “group.”

Structures are written as SMILES.

A word on the ED50: it is the dose that gives a 50% effect, or the effect in half of the subjects. `COc1ccnc(C[S+]([O-])c2nc3cc(OC(F)(F)F)ccc3[nH]2)c1` (centres unmarked) [Serial No. 1, 2-[(4-methoxy-2-pyridyl)methylsulfinyl]-5-trifluoromethoxy-1H-benzimidazole] showed an ED50 in assay [1] of 0.6 mg/kg. In assay [2], the ED25 stood at 0.5 mg/kg, the ED50 stood at 1.1 mg/kg and the “Gastric secretion (rats): % inhibition of HCl secretion” value (from here on “Gastric secretion (rats): % inhibition”) was 32%.
In the case of `COc1ccnc(CSc2nc3cc(OC(F)(F)F)ccc3[nH]2)c1C` [Serial No. 2, 2-[(4-methoxy-3-methyl-2-pyridyl)methylthio]-5-trifluoromethoxy-1H-benzimidazole], in assay [1], the ED50 is 0.3 mg/kg. In assay [2], the ED25 is 0.35 mg/kg, the ED50 was 0.5 mg/kg and the “Gastric secretion (rats): % inhibition” value is recorded as 20%.
In assay [1], `COc1ccnc(C[S+]([O-])c2nc3cc(OC(F)(F)F)ccc3[nH]2)c1C` (centres unmarked) [Serial No. 3, 2-[(4-methoxy-3-methyl-2-pyridyl)methylsulfinyl]-5-trifluoromethoxy-1H-benzimidazole] gave an ED50 of 0.3 mg/kg. Moreover, in assay [2], the ED25 is less than 0.3 mg/kg, the ED50 came to 0.4 mg/kg and the “Gastric secretion (rats): % inhibition” value stood at 32%.
In the case of `COc1cc(C[S+]([O-])c2nc3cc(OC(F)(F)F)ccc3[nH]2)ncc1C` (centres unmarked) [Serial No. 4, 2-[(4-methoxy-5-methyl-2-pyridyl)methylsulfinyl]-5-trifluoromethoxy-1H-benzimidazole], in assay [1], it took a dose of 0.9 mg/kg to reach the 50% effect level (ED50). For the same compound, in assay [2], the ED25 was determined as 0.6 mg/kg, it took a dose of 1.6 mg/kg to reach the 50% effect level (ED50) and the “Gastric secretion (rats): % inhibition” value is reported as 32%.
Consider `COc1ccnc(C[S+]([O-])c2nc3cc(OC(F)(F)C(F)F)ccc3[nH]2)c1` (centres unmarked) [Serial No. 5, 2-[(4-methoxy-2-pyridyl)methylsulfinyl]-5-(1,1,2,2-tetrafluoroethoxy)-1H-benzimidazole], for which the ED50 in assay [1] amounted to 0.7 mg/kg. Besides, in assay [2], the ED25 is 0.5 mg/kg, the ED50 was 1.2 mg/kg and the “Gastric secretion (rats): % inhibition” value amounted to 33%.
Take `COc1ccnc(C[S+]([O-])c2nc3cc(OC(F)(F)C(F)F)ccc3[nH]2)c1C` (centres unmarked) [Serial No. 6, 2-[(4-methoxy-3-methyl-2-pyridyl)methylsulfinyl]-5-(1,1,2,2-tetrafluoroethoxy)-1H-benzimidazole]: in assay [1], the ED50 is 0.5 mg/kg. Moreover, in assay [2], the ED25 came out at 0.3 mg/kg, it took a dose of 0.7 mg/kg to reach the 50% effect level (ED50) and the “Gastric secretion (rats): % inhibition” value was found to be 35%.
As to `COc1ccnc(CSc2nc3cc(OC(F)(F)C(F)F)ccc3[nH]2)c1C` [Serial No. 7, 2-[(4-methoxy-3-methyl-2-pyridyl)methylthio]-5-(1,1,2,2-tetrafluoroethoxy)-1H-benzimidazole], in assay [1], the ED50 was determined as 0.5 mg/kg. Moreover, in assay [2], the ED25 was 0.35 mg/kg, the ED50 came to 0.7 mg/kg and the “Gastric secretion (rats): % inhibition” value is given as 40%.
The like results for `COc1c(C)cnc(C[S+]([O-])c2nc3cc(OC(F)(F)F)ccc3[nH]2)c1C` (centres unmarked) [Serial No. 8, 2-[(4-methoxy-3,5-dimethyl-2-pyridyl)methylsulfinyl]-5-trifluoromethoxy-1H-benzimidazole] were, in that order, 0.4 mg/kg, 1 mg/kg, 1.5 mg/kg and 20%.
In turn, `COc1c(C)cnc(CSc2nc3cc(OC(F)(F)F)ccc3[nH]2)c1C` [Serial No. 9, 2-[(4-methoxy-3,5-dimethyl-2-pyridyl)methylthio]-5-trifluoromethoxy-1H-benzimidazole] gave an ED50 in assay [1] of 1 mg/kg. In assay [2], the ED25 stood at 1.4 mg/kg, it took a dose of 2 mg/kg to reach the 50% effect level (ED50) and the “Gastric secretion (rats): % inhibition” value was 10%.
For `COc1ccnc(C[S+]([O-])c2nc3cc(OCC(F)(F)F)ccc3[nH]2)c1C` (centres unmarked) [Serial No. 10, 2-[(4-methoxy-3-methyl-2-pyridyl)methylsulfinyl]-5-(2,2,2-trifluoroethoxy)-1H-benzimidazole] the same measures were 0.5 mg/kg, 0.5 mg/kg, 0.7 mg/kg and 25%.
The compound `COc1ccnc(CSc2nc3cc(OCC(F)(F)F)ccc3[nH]2)c1C` [Serial No. 11, 2-[(4-methoxy-3-methyl-2-pyridyl)methylthio]-5-(2,2,2-trifluoroethoxy)-1H-benzimidazole] registered an ED50 in assay [1] of 0.5 mg/kg. In addition, in assay [2], the ED25 was 0.5 mg/kg, the ED50 is 0.7 mg/kg and the “Gastric secretion (rats): % inhibition” value is reported as 25%.
Regarding `COc1ccnc(C[S+]([O-])c2nc3cc(OC(F)F)ccc3[nH]2)c1C` (centres unmarked) [Serial No. 12, 5-difluoromethoxy-2-[(4-methoxy-3-methyl-2-pyridyl)methylsulfinyl]-1H-benzimidazole], the ED50 in assay [1] was roughly 0.3 mg/kg. For the same compound, in assay [2], the ED25 is roughly 0.3 mg/kg, the ED50 is roughly 0.6 mg/kg and the “Gastric secretion (rats): % inhibition” value is on record as ~ 20%.
`COc1ccnc(C[S+]([O-])c2nc3cc(OC(F)F)c(OC(F)F)cc3[nH]2)c1` (centres unmarked) [Serial No. 13, 5,6-bis(difluoromethoxy)-2-[(4-methoxy-2-pyridyl)methylsulfinyl]-1H-benzimidazole] displayed an ED50 in assay [1] of roughly 1.2 mg/kg. Moreover, in assay [2], the ED25 is roughly 1.1 mg/kg, the ED50 was roughly 1.7 mg/kg and the “Gastric secretion (rats): % inhibition” value is ~ 30%.
`COc1ccnc(C[S+]([O-])c2nc3cc(OC(F)F)c(OC(F)F)cc3[nH]2)c1C` (centres unmarked) [Serial No. 14, 5,6-bis(difluoromethoxy)-2-[(4-methoxy-3-methyl-2-pyridyl)methylsulfinyl]-1H-benzimidazole] showed an ED50 in assay [1] of 0.2 mg/kg. In addition, in assay [2], the ED25 was roughly 0.3 mg/kg, the 50% effect level (ED50) was put at a dose of 0.6 mg/kg and the “Gastric secretion (rats): % inhibition” value came out at 20%.
For `COc1ccnc(CSc2nc3cc(OC(F)F)c(OC(F)F)cc3[nH]2)c1C` [Serial No. 15, 5,6-bis(difluoromethoxy)-2-[(4-methoxy-3-methyl-2-pyridyl)methylthio]-1H-benzimidazole] the same measures were 0.6 mg/kg, 0.5 mg/kg, 1 mg/kg and 30%.
As to `COc1cc2[nH]c([S+]([O-])Cc3nccc(OC)c3C)nc2cc1OC(F)F` (centres unmarked) [Serial No. 16, 5-difluoromethoxy-6-methoxy-2-[(4-methoxy-3-methyl-2-pyridyl)methylsulfinyl]-1H-benzimidazole], the ED50 in assay [1] was 0.2 mg/kg; in assay [2] it was roughly 0.8 mg/kg.
For `COc1cc2[nH]c(SCc3nccc(OC)c3C)nc2cc1OC(F)F` [Serial No. 17, 5-difluoromethoxy-6-methoxy-2-[(4-methoxy-3-methyl-2-pyridyl)methylthio]-1H-benzimidazole], the ED50 in assay [1] is roughly 0.3 mg/kg. Besides, in assay [2], the ED25 was roughly 0.3 mg/kg, the ED50 is roughly 0.8 mg/kg and the “Gastric secretion (rats): % inhibition” value is listed as ~ 25%.
Consider `COc1ccnc(C[S+]([O-])c2nc3cc(OC(F)(F)Cl)ccc3[nH]2)c1` (centres unmarked) [Serial No. 18, 5-chlorodifluoromethoxy-2-[(4-methoxy-2-pyridyl)methylsulfinyl]-1H-benzimidazole], for which the ED50 in assay [1] amounted to 1.3 mg/kg. In assay [2], the ED25 was less than 1 mg/kg, the ED50 was found to be 1.8 mg/kg and the “Gastric secretion (rats): % inhibition” value worked out at 35%.
`COc1ccc2[nH]c(SCc3ncc(C)c(OC)c3C)nc2c1` [Serial No. A, 5-methoxy-2-[(4-methoxy-3,5-dimethyl-2-pyridylmethyl)thio]-1H--benzimidazole, reference compound] showed a median effective dose (ED50) in assay [1] of 9 mg/kg. For the same compound, in assay [2], the ED25 came out at 12 mg/kg, the ED50 came out at 25 mg/kg and the “Gastric secretion (rats): % inhibition” value was 20%.
